Test results from patent publication US20090280110A1, “Cell Model for Alzheimer's Disease Pathology” (UNIVERSITY OF VIRGINIA PATENT FOUNDATION, priority 2006, published 2009).
“Also recorded” adds a separate entry of the source.

Assays:
CV-1 cell microtubules = experiment: Time lapse fluorescence microscopy of microtubules in transfected CV-1 cells treated with Aβ; type: cell-based, African green monkey
Method: (§1) Cell Culture: CV-1 (African green monkey kidney) cells were cultured in DMEM (Dulbecco's modified Eagle's Medium; GIBCO) supplemented with 10% Cosmic Calf Serum (Hyclone) and 50 μg/ml gentamycin. Cells were transiently transfected using Fugene (Roche) with cDNAs for the longest human isoform of tau, or the projection domain (amino acids 1-248) of tau linked at their C-terminals to eCFP or eYFP (Clontech); with YFP-α-tubulin (Clontech); or with GFP-MAP2c or GFP-MAP2c/tau chimeras (Roger et al., 2004), which were generous gifts of Dr. Shelley Halpain. Primary cortical neurons were purchased from Genlantis and cultured according to their guidelines. Primary hippocampal neurons (Wisco et al., 2003) were grown for at least 8 days prior to Aβ treatment. The tau siRNA (Darmacon SMARTpool) and control scrambled siRNA (Darmacon non-specific duplex II) were transfected into primary hippocampal neurons using the rat neuron Nucleofection system (Amaxa) and program G-13 (Qiang et al., 2006). Cells were cultured for 4 days after Nucleofection, and then were exposed to Aβ.
Aβ treatment: Previously described methods were used to synthesize (Burdick et al., 1992) and resuspend (Kayed et al., 2003) Aβ42 and Aβ40. The Aβ was added to cells cultured in serum-free DMEM to final concentrations from 0.1-5 μM. Pre-fibrillar Aβ was used in the first and second days following resuspension, while fibrillar Aβ was used following at least 7 days of stirring.
Microscopy: Confocal live cell imaging and immunofluorescence microscopy were performed on a Zeiss Axiovert 100 using Openlab 4.0 (Improvision) software, as previously described (Mateer et al., 2002). For electron microscopy, primary cortical and hippocampal neurons were grown on glass coverslips, treated with Aβ42, and fixed in 2.5% glutaraldehyde+0.5% tannic acid in 0.1 M cacodylate buffer pH 7.4. Cells on coverslips were dehydrated and capsule embedded in EPON, and the glass coverslip was removed from the EPON by alternating liquid nitrogen and warm water submersion of the capsule. Sectioned samples were viewed on a JEOL JEM 1010 electron microscope at 80 kV and images captured using a SA1-12c 16 megapixel cooled CCD (Scientific Instruments and Applications, Inc).

[1] = test system: microtubules in primary hippocampal neurons; experiment: Triton X-100 extraction partitioning soluble and polymerized tubulin, immunoblotting; type: cell-based, rat; settings: 2 hours
Method: Microtubule Extraction/Blotting: Primary hippocampal neurons were treated with 1-3 μM pre-fibrillar or fibrillar Aβ42. Cells were washed with PBS, and extracted with Triton X-100 in a microtubule stabilizing buffer (Black et al., 1996). Briefly, cells were incubated with PHEM buffer (60 mM PIPES pH 6.9, 25 mM HEPES, 10 mM EGTA, 2 mM MgCl2) with 10 μM taxol, and 0.2% Triton X-100 for 5 minutes. The buffer was collected and centrifuged for 5 minutes at maximum speed in an Eppendorf model 5415 table top centrifuge, and the supernatant removed and added to sample buffer. An equivalent volume of PHEM buffer and sample buffer was added to the dish, and this sample was added to the pellet from the spin. Equal volumes of supernatants and pellets, which respectively contained soluble and polymerized tubulin (Black et al., 1996), were then analyzed by immunoblotting with DM1α monoclonal anti-α-tubulin (Sigma) and monoclonal tau-5. DM1α (Blose et al., 1984) and tau-5 (Loomis et al., 1990) recognize all isoforms or α-tubulin and tau, respectively, independently of post-translational modifications. Quantitation of scanned immunoreactive α-tubulin bands was performed using the public domain image processing software, Image J at the NIH website.

[2] = test system: primary rat cortical neurons; experiment: Immunofluorescence and electron microscopy of neurons treated with Aβ42; type: cell-based; settings: 1 μM
Method: as §1
Microscopy: Confocal live cell imaging and immunofluorescence microscopy were performed on a Zeiss Axiovert 100 using Openlab 4.0 (Improvision) software, as previously described (Mateer et al., 2002). […]

tau = experiment: Western blotting with phosphorylation-sensitive anti-tau antibodies (PHF-1, AT180, tau-1); type: cell-based; settings: primary rat hippocampal neurons, 1 μM, 2 hours
Source text: Antibodies: Tau-5, Tau-1, and R1 tau were generous gifts of Dr. Lester Binder, and PHF-1 was kindly provided by Dr. Peter Davies. AT180 (Pierce Endogen), DM1α (Sigma Chemical), Actin C4 (Chemicon), fluorescently tagged goat anti-mouse IgG and goat anti-rabbit (Southern Biotech), and HRP-labeled goat anti-mouse IgG (KPL) were acquired from the indicated commercial sources.

Substance	microtubule integrity in tau-expressing cells (CV-1 cell microtubules; CV-1 cells expressing tau-CFP, as much as 5 μM, more than two hours)	microtubules in tau-expressing cells (CV-1 cell microtubules; tau-expressing CV-1 cells, 3 μM, 0-140 minutes (FIG. 1c))	tubulin polymerized ([1]; primary hippocampal neurons, 3 μM, about 90% in cells not exposed)	time after addition until tau dissociated from microtubules (CV-1 cell microtubules; CV-1 cells co-expressing tau-CFP and YFP-tubulin, 0.1-3 μM)	concentration added to culture media at which tau dissociated from microtubules, which completely disassembled soon thereafter (CV-1 cell microtubules; CV-1 cells co-expressing tau-CFP and YFP-tubulin, within 1-2 hours)	microtubule integrity in cells without tau (CV-1 cell microtubules; CV-1 cells expressing YFP-tubulin but not tau-CFP, as much as 3 μM, more than two hours)	effect on tau and microtubules in tau-expressing cells (CV-1 cell microtubules; CV-1 cells with tau-CFP and YFP-tubulin, 1 μM, 0-120 minutes (FIG. 1a))	microtubules in cells expressing the N-terminal arm (projection domain) of tau coupled to CFP (CV-1 cell microtubules; CV-1 cells, 1 μM)	microtubules in cells expressing GFP-tau chimera (CV-1 cell microtubules; CV-1 cells, 1 μM, less than an hour)	microtubules in cells expressing GFP-MAP2c chimera (CV-1 cell microtubules; CV-1 cells, 1 μM, more than 2 hours)	microtubule integrity in cells expressing GFP-MAP2c (CV-1 cell microtubules; CV-1 cells, 1 μM, over 2 hours)	neurite morphology by immunofluorescence ([2]; 30 minutes)	neurite microtubules by electron microscopy ([2]; 2 hours)	change in tubulin levels in response to Aβ42 in tau siRNA-treated cells ([1]; primary neurons with tau siRNA, 2 μM, compared to tau expressing cells)	AD-like tau phosphorylation (tau)
fibrillar Aβ42: synthesized Aβ42 peptide used following at least 7 days of stirring	unaffected	unaffected	65%	–	–	–	–	–	–	–	–	–	–	–	–
pre-fibrillar Aβ42: synthesized Aβ42 peptide used in the first and second days following resuspension; monomers to oligomers	–	–	–	1 to 2 h	0.1 to 3 µM	remained intact	caused tau to dissociate from microtubules, and the microtubules to disassemble soon thereafter	depolymerized	depolymerized	remained intact	did not cause any apparent loss of microtubule integrity; also recorded: remained intact	swollen varicosities	fewer, less organized microtubules; also recorded: numerous varicosities that were filled with membrane-bound organelles and lacked microtubules	no change	did not cause increased AD-like tau phosphorylation
